In patent publication US20140120167A1, “MULTIFUNCTIONAL CHEMO- AND MECHANICAL THERAPEUTICS” (WILLIAM MARSH RICE UNIVERSITY, priority 2012, published 2014):

How the values were obtained:
[1] = system: HN31 squamous carcinoma cells; assay: Short-term complex viability (RRV, Trypan Blue exclusion and cell concentration) 72 h after treatment; type: cell-based, human; conditions: for increase of cancer cell viability with plain (non-conjugated) nanocarriers compared with C225-conjugated carriers: GNP-C225 + PNB; for drug concentration required, drugs administered alone, to bring complex viability of cancer cells to the levels of PNB-enhanced release: no PNB
Procedure: Short term response in vitro to co-localized administration of drug nanocarriers, GNPs and laser pulses. We used EGFR-positive HN31 (cancer) cells and EGFR-negative NOM9 (normal) cells. […] After incubation, GNPs and drug carriers were washed off. […] PNB lifetime was obtained for individual cells. The short-term viability was evaluated 72 hours after the treatment of samples as a complex viability parameter RRV that included the viability level V1 (measured in % with Trypan Blue exclusion test) and the cell concentration C: RRV=C/C0*V1,*100% , where C0 is the cell concentration in the intact sample.
The ability of the PNB mechanism to overcome drug resistance and to reduce non-specific toxicity was evaluated with two common drugs and carrier types. Water-soluble doxorubicin was encapsulated into PEG-coated 90 nm Doxil liposomes that were conjugated with anti-EGFR antibody, C225 (L-Dox-C225). Non-soluble paclitaxel was loaded into 14 nm micelles conjugated to the same antibody (M-Ptx-C225). Each type of drug-loaded nanocarrier was administered separately with gold NP-C225 conjugates. Cancer (HN31) and normal (NOM9) cells were incubated identically with NP-C225 and nanocarriers. Drug doses were reduced to the level that provided relatively high viability of both cell types when treated with nanocarriers alone (without PNBs).
After incubation, NPs and nanocarriers were washed off, the cells were exposed to a single laser pulse (70 ps, 532 nm, 40 mJ cm^−2) and the PNB lifetime was obtained for individual cells. […] The cell concentration and viability were measured at 72 hours after the PNB generation as the complex viability parameter that was normalized by that in intact cells (FIG. 8). […] (FIGS. 8a and 8b).
Short-term therapeutic response to quadrapeutics and other treatments in vitro. […] The radiation treatment was administered within 60 min after PNB generation, i.e. when the intracellular concentration of the released drug was close to the maximal.

[2] = system: NOM9 cells; assay: Clonogenic test (surviving fraction), normal cells; conditions: quadrapeutics, X-rays 4 Gy 6 hours after PNB
Description: Evaluation of the long-term therapeutic response with a clonogenic test. We used EGFR-positive HN31 cells and EGFR-negative NOM9 cells. […] Thus the cells were exposed only to the internalized drug during the follow-up generation of PNBs. One to six hours afterwards, a single dose of X-rays (0-25 Gy) was applied.
To evaluate their colony-forming ability, the cells were trypsinized and replaced in 100 mm dishes in a free medium immediately after the treatment of samples. After 10 days of cultivation, the cells were stained with 0.5% crystal violet in absolute ethanol, and colonies with more than 50 cells were counted under a microscope. Plating efficiency was defined as the percentage of cells seeded that grew into colonies under a specific culture condition of a given cell line. […] All experiments were performed three times.

[3] = system: HN31 cells; assay: Clonogenic test (surviving fraction), cancer cells; type: cell-based, human; conditions: Dox 2 μg mL^−1 or Ptx 33 ng mL^−1 + GNP 2.4×10^10 mL^−1 + laser 45 mJ cm^−2 + X-rays 4 Gy 6 hours after PNB

Row | Compound | fold higher concentration required for drug alone vs PNB-enhanced release [1] [fold] | increase of cancer cell viability with plain (non-conjugated) nanocarriers compared with C225-conjugated carriers [1] | drug concentration required, drugs administered alone, to bring complex viability of cancer cells to the levels of PNB-enhanced release [1] [µg/mL] | viability of identically treated normal cells [2] | cancer cell growth (clonogenicity) after quadrapeutics, mode D+PNB+XR6 [3]
1 | COc1cccc2c1C(=O)c1c(O)c3c(c(O)c1C2=O)C[C@@](O)(C(=O)CO)C[C@@H]3O[C@H]1C[C@H](N)[C@H](O)[C@H](C)O1 [doxorubicin] | 18 | several-fold | 85 | – | –
2 | CC(=O)O[C@H]1C(=O)[C@@]2(C)[C@H]([C@H](OC(=O)c3ccccc3)[C@]3(O)C[C@H](OC(=O)[C@H](O)[C@@H](NC(=O)c4ccccc4)c4ccccc4)C(C)=C1C3(C)C)[C@]1(OC(C)=O)CO[C@@H]1C[C@@H]2O [paclitaxel] | 15 | several-fold | 1 | close to that of intact cells | strong therapeutic effect
